Source: patent publication US11498923B2 (Merck Sharp & Dohme Corp., priority 2017, dated 2022)

Biological target: T1, human A2a receptor (Homo sapiens, UniProt P29274)
T1 construct: purchased Perkin-Elmer RBHA2AM400UA; host or cells: HEK293 cells, used as a membrane preparation
Experiment: A2a receptor competition binding assay (Scintillation Proximity)
Conditions: A2a Ki, membranes from HEK293 cells expressing human A2a receptor; 0.5 nM tritiated ligand; Cheng-Prusoff
Outline: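 Ki values were obtained with the Cheng-Prusoff equation from competition curves against 0.5 nM tritiated antagonist, scintillation proximity counting after 1 h room-temperature incubation. Receptor came from HEK293 membranes pretreated with adenosine deaminase; compound final range 3000–0.15 nM, buffer Ca/Mg-free PBS with 10 mM MgCl2.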

T1 sequence (P29274 whole entry): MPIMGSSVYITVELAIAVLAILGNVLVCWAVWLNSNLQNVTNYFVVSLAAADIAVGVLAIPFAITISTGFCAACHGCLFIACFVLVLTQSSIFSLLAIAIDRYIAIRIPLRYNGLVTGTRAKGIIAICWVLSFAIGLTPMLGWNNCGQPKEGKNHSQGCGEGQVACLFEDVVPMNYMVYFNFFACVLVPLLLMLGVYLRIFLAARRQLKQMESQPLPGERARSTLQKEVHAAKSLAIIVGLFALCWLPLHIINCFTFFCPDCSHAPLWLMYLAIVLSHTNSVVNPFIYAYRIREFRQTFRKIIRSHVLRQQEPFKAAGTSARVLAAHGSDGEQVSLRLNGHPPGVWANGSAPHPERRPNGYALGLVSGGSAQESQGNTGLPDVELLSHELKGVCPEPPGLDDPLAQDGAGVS

Compound | Ki [nM]
COc1cccc2c1nc(N)n1cc(C(=O)N3C4CCC3COC4)nc21 [Ex-224, (5-amino-7-methoxyimidazo[1,2-c]quinazolin-2-yl)(3-oxa-8-azabicyclo[3.2.1]octan-8-yl)methanone] | 8.2

Same assay, conditions: membranes from HEK293 cells expressing human A2a receptor; 0.5 nM tritiated ligand; Cheng-Prusoff; read-out: A2a Ki

Compound | Ki [nM]
Nc1nc2c(F)cccc2c2nc(Cc3cccc4c3CCNC4)cn12 [Ex-52, 7-fluoro-2-((1,2,3,4-tetrahydroisoquinolin-5-yl)methyl)imidazo-[1,2-c]quinazolin-5-amine] | 11
Cc1noc(C)c1-c1cccc2c1nc(N)n1cc(Cc3ccccc3)nc21 [Ex-152] | 35
CN(Cc1cccc2cccnc12)C(=O)c1cn2c(N)nc3ccccc3c2n1 [Ex-160, 5-amino-N-methyl-N-(quinolin-8-ylmethyl)imidazo[1,2-c]quinazoline-2-carboxamide] | 80.6
COc1cccc2c1nc(N)n1cc(Cc3ccc(N4CCN(C(C)=O)CC4)cc3)nc21 [Ex-44, 1-(4-(4-((5-amino-7-methoxyimidazo[1,2-c]quinazolin-2-yl)methyl)phenyl)piperazin-1-yl)ethan-1-one] | 14
COc1cccc2c1nc(N)n1cc(C(=O)N3CCCC(CO)C3)nc21 (centres unmarked) [Ex-191, (5-amino-7-methoxyimidazo[1,2-c]quinazolin-2-yl)(3-(hydroxymethyl)piperidin-1-yl)methanone] | 23
COc1cccc2c1nc(N)n1cc(C(=O)N3CCCC(F)(F)C3)nc21 [Ex-172, (5-amino-7-methoxyimidazo[1,2-c]quinazolin-2-yl)(3,3-difluoropiperidin-1-yl)methanone] | 18
Nc1nc2c(F)cccc2c2nc(CC3CCN(C(=O)c4cccc(Br)n4)CC3)cn12 [Ex-322, (4-((5-amino-7-fluoroimidazo[1,2-c]quinazolin-2-yl)-methyl)piperidin-1-yl)(6-bromopyridin-2-yl)methanone] | 26
Cc1noc(C)c1-c1cccc2c1nc(N)n1cc(Cc3ccc(F)cc3)nc21 [Ex-154, 7-(3,5-dimethylisoxazol-4-yl)-2-(4-fluorobenzyl)imidazo[1,2-c]quinazolin-5-amine] | 48
COc1cccc2c1nc(N)n1cc(C(=O)N3CCO[C@H](C)C3)nc21 [Ex-181, (R)-(5-amino-7-methoxyimidazo[1,2-c]quinazolin-2-yl)(2-methylmorpholino) methanone] | 110
Nc1nc2c(F)cccc2c2nc(CN3CCCN(c4ccccn4)CC3)cn12 [Ex-119, 7-fluoro-2-((4-(pyridin-2-yl)-1,4-diazepan-1-yl)methyl)imidazo[1,2-c]quinazolin-5-amine] | 210
Nc1nc2c(F)cccc2c2nc(CN3CCc4cc(-c5ccc(F)c(F)c5)ccc4C3)cn12 [Ex-130, 2-((6-(3,4-difluorophenyl)-3,4-dihydroisoquinolin-2(1H)-yl)methyl)-7-fluoroimidazo[1,2-c]quinazolin-5-amine] | 46
COc1cccc2c1nc(N)n1cc(CN3CC(c4cccc(Cl)c4)C3)nc21 [Ex-144, 2-((3-(3-chlorophenyl)azetidin-1-yl)methyl)-7-methoxyimidazo[1,2-c]quinazolin-5-amine] | 13
COc1cccc2c1nc(N)n1cc(C(=O)N3CCC[C@H]3C(F)(F)F)nc21 [Ex-211, (S)-(5-amino-7-methoxyimidazo[1,2-c]quinazolin-2-yl)(2-(trifluoromethyl)pyrrolidin-1-yl)methanone] | 14
Nc1nc2c(F)cccc2c2nc(CN3CCN(C(=O)Cc4ccccn4)c4ccccc43)cn12 [Ex-136, 1-(4-((5-amino-7-fluoroimidazo[1,2-c]quinazolin-2-yl)methyl)-3,4-dihydroquinoxalin-1(2H)-yl)-2-(pyridin-2-yl)ethan-1-one] | 12
CC(=O)N1CCC2(CCN(C(=O)c3cn4c(N)nc5c(F)cccc5c4n3)CC2)C1 [Ex-269, 1-(8-(5-amino-7-fluoroimidazo[1,2-c]quinazoline-2-carbonyl)-2,8-diazaspiro[4.5]decan-2-yl)ethan-1-one] | 200
Nc1nc2c(F)cccc2c2nc(CC3CCN(c4ncc(F)cn4)CC3)cn12 [Ex-300, 7-fluoro-2-((1-(5-fluoropyrimidin-2-yl)piperidin-4-yl)methyl)imidazo[1,2-c]quinazolin-5-amine] | 12
COc1ccc(CN2CCC(Cc3cn4c(N)nc5c(F)cccc5c4n3)CC2)cc1 [Ex-309, 7-fluoro-2-((1-(4-methoxybenzyl)-piperidin-4-yl)-methyl)imidazo-[1,2-c]quinazolin-5-amine] | 150
C[C@H](NC(=O)c1cn2c(N)nc3c(F)cccc3c2n1)c1ccccc1 [Ex-296, (S)-5-amino-7-fluoro-N-(1-phenylethyl)imidazo[1,2-c]quinazoline-2-carboxamide] | 28
Nc1nc2c(F)cccc2c2nc(C(=O)N3CCC4(CCNC4)CC3)cn12 [Ex-267, (5-amino-7-fluoroimidazo[1,2-c]quinazolin-2-yl)(2,8-diazaspiro[4.5]decan-8-yl)methanone] | 710
CCN(CC)C(=O)C1CCCN(C(=O)c2cn3c(N)nc4c(OC)cccc4c3n2)C1 (centres unmarked) [Ex-194, 1-(5-amino-7-methoxyimidazo[1,2-c]quinazoline-2-carbonyl)-N,N-diethylpiperidine-3-carboxamide] | 21
Nc1nc2c(F)cccc2c2nc(C(=O)N3CCCC4(CCNC4)C3)cn12 (centres unmarked) [Ex-268, (5-amino-7-fluoroimidazo[1,2-c]quinazolin-2-yl)(2,7-diazaspiro[4.5]decan-7-yl)methanone] | 66
COC(=O)C1CCN(C(=O)c2cn3c(N)nc4c(OC)cccc4c3n2)CC1 [Ex-226, methyl 1-(5-amino-7-methoxyimidazo[1,2-c]quinazoline-2-carbonyl]piperidine-4-carboxylate] | 29
CCCN1CCC2(CCCN(C(=O)c3cn4c(N)nc5c(F)cccc5c4n3)C2)C1 (centres unmarked) [Ex-276, (5-amino-7-fluoroimidazo[1,2-c]quinazolin-2-yl)(2-propyl-2,7-diazaspiro[4.5]decan-7-yl)methanone] | 130
COc1cccc2c1nc(N)n1cc(Cc3cc(C(F)(F)F)ccc3N3CCOCC3)nc21 [Ex-30, 7-methoxy-2-(2-morpholino-5-(trifluoromethyl)benzyl)imidazo[1,2-c]quinazolin-5-amine] | 38
COc1cccc2c1nc(N)n1cc(C(=O)N3CCC(=O)C3)nc21 [Ex-238, 1-(5-amino-7-methoxyimidazo[1,2-c]quinazoline-2-carbonyl)pyrrolidin-3-one] | 170
Nc1nc2c(F)cccc2c2nc(CC3CCN(C(=O)c4ccc(F)cn4)CC3)cn12 [Ex-323, (4-((5-amino-7-fluoroimidazo[1,2-c]quinazolin-2-yl)-methyl)piperidin-1-yl)(5-fluoropyridin-2-yl)methanone] | 17

Results, then the molecule that gave them:

Ki [nM] | Compound
10 | Nc1nc2c(F)cccc2c2nc(Cc3ccc(-c4ccc(F)cn4)cc3)cn12 [Ex-76, 7-fluoro-2-(4-(5-fluoropyridin-yl)benzyl)imidazo[1,2-c]quinazolin-5-amine]
6.8 | Nc1nc2c(F)cccc2c2nc(Cn3cc(-c4ccc(OC(F)(F)F)cc4)nn3)cn12 [Ex-95, 7-fluoro-2-((4-(4-(trifluoromethoxy)-phenyl)-1H-1,2,3-triazol-1-yl)methyl)-imidazo[1,2-c]-quinazolin-5-amine]
6.1 | Nc1nc2c(F)cccc2c2nc(C(=O)NCc3ccccc3CN3CCOCC3)cn12 [Ex-255, 5-amino-7-fluoro-N-(2-(morpholinomethyl)benzyl) imidazo[1,2-c]quinazoline-2-carboxamide]
5.9 | CC(=O)N1CCc2cc(Cc3cn4c(N)nc5c(F)cccc5c4n3)ccc2C1 [Ex-47, 1-(6-((5-amino-7-fluoroimidazo[1,2-c]quinazolin-2-yl)methyl)-3,4-dihydroisoquinolin-2(1H)-yl)ethan-1-one]
5.8 | Nc1nc2ccccc2c2nc(Cc3ccccc3)cn12 [Ex-02, 2-benzylimidazo[1,2-c]quinazolin-5-amine]
5.3 | Nc1nc2c(F)cccc2c2nc(Cc3ccccc3CN3CCN(c4ncccn4)CC3)cn12 [Ex-71, 7-fluoro-2-(2-((4-(pyrimidin-2-yl)piperazin-l-yl)methyl)benzyl) imidazo[1,2-c]quinazolin-5-amine]
4.6 | COc1cccc2c1nc(N)n1cc(C(=O)N3CCCC4(CCC4)C3)nc21 [Ex-200, (5-amino-7-methoxyimidazo[1,2-c]quinazolin-2-yl)(6-azaspiro[3.5]nonan-6-yl)methanone]
4.5 | Nc1nc2c(F)cccc2c2nc(Cc3cccc(-c4cccnc4)c3)cn12 [Ex-74, 7-fluoro-2-(3-(pyridin-3-yl)benzyl)imidazo[1,2-c]quinazolin-5-amine]
3.8 | Nc1nc2c(F)cccc2c2nc(Cc3ccc(C(=O)Nc4ccccn4)cc3)cn12 [Ex-84, 4-((5-amino-7-fluoroimidazo[1,2-c]quinazolin-2-yl)methyl)-N-(pyridin-2-yl)benzamide]
3.6 | Nc1nc2c(F)cccc2c2nc(C(=O)NCc3cccc(N4CCOCC4)c3)cn12 [Ex-257, 5-amino-7-fluoro-N-(3-morpholino-benzyl)imidazo-[1,2-c]-quinazoline-2-carboxamide]
2.8 | COc1cccc2c1nc(N)n1cc(Cc3cccnc3F)nc21 [Ex-42, 2-((2-fluoropyridin-3-yl)methyl)-7-methoxyimidazo[1,2-c]quinazolin-5-amine]
1.6 | COc1cccc2c1nc(N)n1cc(Cc3ccccc3N3CCCC3)nc21 [Ex-29, 7-methoxy-2-(2-(pyrrolidin-1-yl)benzyl)imidazo[1,2-c]quinazolin-5-amine]
1.5 | COc1cccc2c1nc(N)n1cc(C(=O)NCc3cccc4cccnc34)nc21 [Ex-157, 5-amino-7-methoxy-N-(quinolin-8-ylmethyl)imidazo[1,2-c]quinazoline-2-carboxamide]
0.4 | COc1cccc2c1nc(N)n1cc(Cc3ccccc3CN3CCOCC3)nc21 [Ex-26, 7-methoxy-2-(2-(morpholinomethyl)benzyl)imidazo[1,2-c]quinazolin-5-amine]
